Measurements as given in BindingDB's records for doi:10.1002/(SICI)1098-2396(200002)35:2<79::AID-SYN1>3.0.CO;2-X (Institut De Recherches Servier, 2000).

Assays:
[1] = target: T1, 5-hydroxytryptamine receptor 2C (Homo sapiens, UniProt P28335)
T1 sequence (P28335 whole entry): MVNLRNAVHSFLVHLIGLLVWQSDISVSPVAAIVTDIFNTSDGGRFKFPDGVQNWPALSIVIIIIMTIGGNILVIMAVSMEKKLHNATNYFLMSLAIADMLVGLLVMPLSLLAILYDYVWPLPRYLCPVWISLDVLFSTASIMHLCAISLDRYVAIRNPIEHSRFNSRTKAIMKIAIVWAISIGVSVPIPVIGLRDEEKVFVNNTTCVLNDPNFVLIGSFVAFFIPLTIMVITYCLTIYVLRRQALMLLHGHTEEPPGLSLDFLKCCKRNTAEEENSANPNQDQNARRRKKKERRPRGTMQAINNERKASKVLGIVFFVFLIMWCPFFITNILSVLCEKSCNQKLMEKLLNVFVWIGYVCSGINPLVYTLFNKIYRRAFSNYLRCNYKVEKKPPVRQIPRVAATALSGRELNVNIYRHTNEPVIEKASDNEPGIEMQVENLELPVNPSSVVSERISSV

[2] = target: T2, Alpha-1B adrenergic receptor (Homo sapiens, UniProt P35368)
T2 sequence (P35368 whole entry): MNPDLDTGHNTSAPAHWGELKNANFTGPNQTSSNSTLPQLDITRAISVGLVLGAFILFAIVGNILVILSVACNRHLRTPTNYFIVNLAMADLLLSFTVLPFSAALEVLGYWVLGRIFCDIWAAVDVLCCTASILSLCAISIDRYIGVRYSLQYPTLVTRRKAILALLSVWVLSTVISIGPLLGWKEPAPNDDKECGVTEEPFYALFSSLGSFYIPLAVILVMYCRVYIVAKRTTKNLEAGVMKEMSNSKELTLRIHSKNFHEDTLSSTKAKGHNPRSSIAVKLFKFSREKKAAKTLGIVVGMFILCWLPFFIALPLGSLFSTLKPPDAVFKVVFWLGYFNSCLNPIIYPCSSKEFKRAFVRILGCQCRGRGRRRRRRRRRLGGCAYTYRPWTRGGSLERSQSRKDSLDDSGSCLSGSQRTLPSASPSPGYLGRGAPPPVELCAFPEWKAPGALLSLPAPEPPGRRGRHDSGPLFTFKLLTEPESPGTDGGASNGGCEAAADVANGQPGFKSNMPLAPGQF

[3] = target: T3, Alpha-1A adrenergic receptor (Rattus norvegicus, UniProt P43140)
T3 sequence (P43140 whole entry): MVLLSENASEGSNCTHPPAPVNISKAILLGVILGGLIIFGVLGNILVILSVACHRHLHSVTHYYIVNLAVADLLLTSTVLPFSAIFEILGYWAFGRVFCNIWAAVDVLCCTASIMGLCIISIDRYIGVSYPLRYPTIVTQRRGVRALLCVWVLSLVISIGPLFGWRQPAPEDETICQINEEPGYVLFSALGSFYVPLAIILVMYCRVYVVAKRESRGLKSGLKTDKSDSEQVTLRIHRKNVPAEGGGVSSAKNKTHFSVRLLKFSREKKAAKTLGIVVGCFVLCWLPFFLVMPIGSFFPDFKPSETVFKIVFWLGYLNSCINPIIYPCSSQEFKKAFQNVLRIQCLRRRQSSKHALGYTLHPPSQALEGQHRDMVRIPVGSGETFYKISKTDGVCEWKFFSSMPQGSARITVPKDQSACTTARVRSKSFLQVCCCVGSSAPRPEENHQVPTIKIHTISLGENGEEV

D(2) dopamine receptor = D(2) dopamine receptor (Homo sapiens, UniProt P14416)
[4] = target: T4, Alpha-2C adrenergic receptor (Rattus norvegicus, UniProt P22086)
T4 sequence (P22086 whole entry): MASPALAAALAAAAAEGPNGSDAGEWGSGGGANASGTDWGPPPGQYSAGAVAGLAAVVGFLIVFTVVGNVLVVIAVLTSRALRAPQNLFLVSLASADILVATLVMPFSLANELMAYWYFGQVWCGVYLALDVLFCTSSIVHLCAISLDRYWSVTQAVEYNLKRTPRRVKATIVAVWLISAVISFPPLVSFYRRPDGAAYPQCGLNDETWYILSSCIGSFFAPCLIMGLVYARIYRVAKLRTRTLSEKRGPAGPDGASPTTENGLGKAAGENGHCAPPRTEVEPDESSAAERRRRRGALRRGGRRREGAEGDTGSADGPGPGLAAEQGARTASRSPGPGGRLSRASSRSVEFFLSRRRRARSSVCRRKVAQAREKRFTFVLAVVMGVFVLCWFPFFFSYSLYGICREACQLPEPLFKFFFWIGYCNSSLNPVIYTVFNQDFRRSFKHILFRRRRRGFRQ

[5] = target: T5, Alpha-2A adrenergic receptor [16-465] (Rattus norvegicus, UniProt P22909)
T5 construct: 16-465
T5 sequence (P22909 whole entry): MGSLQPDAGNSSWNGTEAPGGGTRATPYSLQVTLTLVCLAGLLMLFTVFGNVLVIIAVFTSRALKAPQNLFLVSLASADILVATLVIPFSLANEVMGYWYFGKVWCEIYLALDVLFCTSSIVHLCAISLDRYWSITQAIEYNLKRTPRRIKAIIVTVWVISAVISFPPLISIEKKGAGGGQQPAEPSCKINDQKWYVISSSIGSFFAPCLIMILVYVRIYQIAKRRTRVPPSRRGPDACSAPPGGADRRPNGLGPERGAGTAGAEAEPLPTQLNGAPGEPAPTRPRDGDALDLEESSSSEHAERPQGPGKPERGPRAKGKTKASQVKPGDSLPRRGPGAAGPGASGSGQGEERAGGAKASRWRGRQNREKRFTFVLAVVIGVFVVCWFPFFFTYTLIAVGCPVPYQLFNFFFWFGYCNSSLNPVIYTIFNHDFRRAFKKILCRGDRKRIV

Sequence of D(2) dopamine receptor (P14416 whole entry): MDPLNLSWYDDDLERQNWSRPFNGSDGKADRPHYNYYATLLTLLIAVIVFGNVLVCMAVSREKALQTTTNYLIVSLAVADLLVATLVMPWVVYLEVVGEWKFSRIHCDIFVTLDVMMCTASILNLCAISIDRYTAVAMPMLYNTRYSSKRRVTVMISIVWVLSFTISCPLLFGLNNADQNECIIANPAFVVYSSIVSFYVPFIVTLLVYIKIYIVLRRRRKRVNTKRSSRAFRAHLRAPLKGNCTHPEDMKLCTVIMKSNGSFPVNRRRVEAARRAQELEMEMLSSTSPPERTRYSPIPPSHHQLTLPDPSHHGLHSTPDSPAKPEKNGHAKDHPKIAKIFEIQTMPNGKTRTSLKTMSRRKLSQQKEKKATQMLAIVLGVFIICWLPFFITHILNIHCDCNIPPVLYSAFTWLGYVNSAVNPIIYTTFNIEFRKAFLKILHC

With Fc1cccc2c1OC1CNCC1O2 (stereo unspecified) [CAS_105182-45-4] the Ki [1] was 1000 nM, the Ki [2] was 1000 nM and the Ki [3] was 794 nM. The Ki (D(2) dopamine receptor) was 1000 nM, the Ki [4] was 0.5 nM and the Ki [5] was 1.25 nM.
